This passage reports IC50 results from patent publication US10626112B2, “Heterocyclic sulfonamide derivative and medicine comprising same” (EA PHARMA CO., LTD., priority 2014, dated 2020).

human TRPA1, sequence (O75762 whole entry): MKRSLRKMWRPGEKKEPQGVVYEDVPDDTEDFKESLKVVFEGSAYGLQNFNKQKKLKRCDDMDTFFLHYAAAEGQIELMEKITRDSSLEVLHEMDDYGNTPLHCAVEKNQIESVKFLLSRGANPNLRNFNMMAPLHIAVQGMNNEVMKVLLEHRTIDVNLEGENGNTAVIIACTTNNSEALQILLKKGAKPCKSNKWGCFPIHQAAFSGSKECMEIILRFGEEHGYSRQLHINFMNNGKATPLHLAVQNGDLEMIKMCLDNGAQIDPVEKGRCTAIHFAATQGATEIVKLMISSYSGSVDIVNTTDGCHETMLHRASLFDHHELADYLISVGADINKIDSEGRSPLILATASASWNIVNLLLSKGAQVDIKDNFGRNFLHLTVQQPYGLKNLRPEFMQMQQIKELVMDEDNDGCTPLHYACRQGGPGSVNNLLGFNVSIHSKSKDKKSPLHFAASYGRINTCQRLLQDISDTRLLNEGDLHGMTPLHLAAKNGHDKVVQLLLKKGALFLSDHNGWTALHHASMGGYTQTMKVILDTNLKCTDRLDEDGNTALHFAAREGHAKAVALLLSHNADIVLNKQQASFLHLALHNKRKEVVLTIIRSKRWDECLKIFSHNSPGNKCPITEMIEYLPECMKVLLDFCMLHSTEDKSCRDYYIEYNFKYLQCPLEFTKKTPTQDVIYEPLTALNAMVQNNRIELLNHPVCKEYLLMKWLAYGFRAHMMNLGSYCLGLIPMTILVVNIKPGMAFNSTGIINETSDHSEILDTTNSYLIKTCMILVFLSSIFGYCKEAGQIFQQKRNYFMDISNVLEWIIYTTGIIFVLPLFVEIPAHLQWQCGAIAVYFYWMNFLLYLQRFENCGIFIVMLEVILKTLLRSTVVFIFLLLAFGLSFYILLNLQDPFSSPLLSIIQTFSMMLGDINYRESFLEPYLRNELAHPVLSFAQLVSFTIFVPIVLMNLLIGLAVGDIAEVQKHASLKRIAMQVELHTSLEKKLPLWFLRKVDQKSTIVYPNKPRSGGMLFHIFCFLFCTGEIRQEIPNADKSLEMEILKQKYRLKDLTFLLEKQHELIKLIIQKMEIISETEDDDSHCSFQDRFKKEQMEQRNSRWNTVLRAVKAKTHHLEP

The experiment addresses human TRPA1 (Homo sapiens (Human), UniProt O75762). The experiment in a line: Measurement of TRPA1 antagonist activity (1): intracellular calcium increase. The experiment is classed as cell-based. The conditions noted are these: 293T cells transfected with human TRPA1 expression plasmid; allylisothiocyanate 20 μM stimulation; intracellular calcium fluorescence; read-out: hTRPA1 IC50. Put shortly: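 Calcium-flux readout of TRPA1 block: compound given 10 min before 20 μM (final) allylisothiocyanate, fluorescence tracked 5 min. Cells were 293T transiently expressing human TRPA1, dye-loaded 1 hr in HBSS, 20 mM HEPES, pH 7.2. Inhibition scaled between agonist-only and buffer-only responses; IC50 by sigmoid fitting.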
As to `CN1CCOc2cc(COc3cccc(CNC(=O)[C@@H]4CCCN4S(=O)(=O)c4cc5cc(F)ccc5o4)c3)cnc21` [Example 24, (2S)-1-(5-fluorobenzofuran-2-yl)sulfonyl-N-[[3-[(4-methyl-2,3-diphydropyrido[3,2-b][1,4]oxazin-7-yl)methoxy]-phenyl]methyl]pyrrolidine-2-carboxamide], the half-maximal inhibitory concentration (IC50) is 410 nM.
In the case of `O=C(NCc1cc(-c2ccc(OC(F)(F)F)cc2)ncn1)[C@@H]1CCCN1S(=O)(=O)c1cc2cnccc2o1` [Example 306, (2S)-1-furo[3,2-c]pyridin-2-ylsulfonyl-N-[[6-[4-(trifluoromethoxy)phenyl]pyrimidin-4-yl]methyl]pyrrolidine-2-carboxamide] it was 2.8 nM; in that of `N#Cc1ccc(-c2ccc(CNC(=O)[C@@H]3CCCN3S(=O)(=O)c3cc4ccccc4o3)cc2)cc1` [Example 170, (2S)-1-(benzofuran-2-ylsulfonyl)-N-[[4-(4-cyanophenyl)phenyl]methyl]-pyrrolidine-2-carboxamide], 230 nM; in that of `O=C(NCc1cc(-c2ccc(C(F)(F)F)cn2)ccn1)[C@@H]1CCN1S(=O)(=O)c1cc2cc(F)ccc2o1` [Example 230, (2S)-1-(5-fluorobenzofuran-2-yl)sulfonyl-N-[[4-[5-(trifluoromethyl)-2-pyridyl]-2-pyridyl]methyl]azetidine-2-carboxamide], 4.4 nM.
In the case of `C[C@H](NS(=O)(=O)c1cc2cc(F)ccc2o1)C(=O)NCc1cc(-c2ccc(C(F)(F)F)nc2)ccn1` [Example 110, (2S)-2-[(5-fluorobenzofuran-2-yl)sulfonylamino]-N-[[4-[6-(trifluoromethyl)-3-pyridyl]-2-pyridyl]methyl]propanamide] it was 17 nM; in that of `Cc1ccc(COc2cccc(CNC(=O)[C@@H]3CCCN3S(=O)(=O)c3cc4cc(F)ccc4o3)c2)cn1` [Example 19, (2S)-1-(5-fluorobenzofuran-2-yl)sulfonyl-N-[[3-[(6-methyl-3-pyridyl)methoxy]phenyl]-methyl]pyrrolidine-2-carboxamide], 14 nM; in that of `O=C(NCc1cccc(Oc2ccc(C(F)(F)F)cc2)c1)[C@@H]1CCCN1S(=O)(=O)c1cc2ccccc2o1` [Example 52, (2S)-1-(benzofuran-2-ylsulfonyl)-N-[[3-[4-(trifluoromethyl)phenoxy]phenyl]-methyl]pyrrolidine-2-carboxamide], 32 nM.
As for `C[C@H](NS(=O)(=O)c1cc2ccccc2o1)C(=O)NCc1cccc(-c2ccc(C(F)(F)F)nc2)c1` [Example 101, (2S)-2-(benzofuran-2-ylsulfonylamino)-N-[[3-[6-(trifluoromethyl)-3-pyridyl]phenyl]methyl]propanamide], the IC50 stood at 27 nM.
The same measure for `O=C(NCc1cccc(OCc2ccc(C(F)(F)F)cc2)c1)[C@@H]1C=CCN1S(=O)(=O)c1cc2ccccc2o1` [Example 44, (2S)-1-(benzofuran-2-ylsulfonyl)-N-[[3-[[4-(trifluoromethyl)phenyl]methoxy]-phenyl]methyl]-2,5-dihydropyrrole-2-carboxamide]: 1.7 nM; for `O=C(NCc1cc(-c2ccc(C(F)(F)F)cc2)ncn1)[C@@H]1[C@@H](O)CCN1S(=O)(=O)c1cc2ccccc2o1` [Example 226, (2S,3S)-1-(benzofuran-2-ylsulfonyl)-3-hydroxy-N-[[6-[4-(trifluoromethyl)-phenyl]pyrimidin-4-yl]methyl]pyrrolidine-2-carboxamide]: 25 nM.
In the case of `O=C(NCc1ccnc(-c2ccc(OC(F)(F)F)cc2)c1)[C@@H]1CCCN1S(=O)(=O)c1cc2cc(F)ccc2o1` [Example 129, (2S)-1-(5-fluorobenzofuran-2-yl)sulfonyl-N-[[2-[4-(trifluoromethoxy)phenyl]-4-pyridyl]methyl]pyrrolidine-2-carboxamide] it was 0.61 nM; in that of `C[C@H](NS(=O)(=O)c1cc2cc(F)ccc2o1)C(=O)NCc1ccnc(-c2ccc(C(F)(F)F)cc2O)c1` [Example 181, (2S)-2-[(5-fluorobenzofuran-2-yl)sulfonylamino]-N-[[2-[2-hydroxy-4-(trifluoromethyl)phenyl]-4-pyridyl]methyl]propanamide], 21 nM.
In the case of `C[C@H](NS(=O)(=O)c1cc2cc(F)ccc2o1)C(=O)NCc1cc(OC(F)(F)F)ccc1F` [Example 73, (2S)-2-[(5-fluorobenzofuran-2-yl)sulfonylamino]-N-[[2-fluoro-5-(trifluoromethoxy)phenyl]methyl]-propanamide] it was 160 nM; in that of `O=C(NCc1cccc(-c2ccc(Cl)cc2)c1)[C@@H]1CCCN1S(=O)(=O)c1cc2cc(F)ccc2o1` [Example 156, (2S)-N-[[3-(4-chlorophenyl)phenyl]methyl]-1-(5-fluorobenzofuran-2-yl)sulfonyl-pyrrolidine-2-carboxamide], 2.1 nM.
Take `O=C(NCc1cccc(Oc2ccc(C(F)(F)F)nc2)c1)[C@@H]1CCCN1S(=O)(=O)c1cc2ccccc2o1` [Example 54, (2S)-1-(benzofuran-2-ylsulfonyl)-N-[[3-[[6-(trifluoromethyl)-3-pyridyl]oxy]phenyl]methyl]-pyrrolidine-2-carboxamide]: the IC50 was 9 nM.
The same measure for `O=C(NCc1cccc(-c2ccc(C(F)(F)F)nc2)c1)[C@@H]1CCCN1S(=O)(=O)c1cc2cc(F)ccc2o1` [Example 88, (2S)-1-(5-fluorobenzofuran-2-yl)sulfonyl-N-[[3-[6-(trifluoromethyl)-3-pyridyl]phenyl]methyl]pyrrolidine-2-carboxamide]: 0.41 nM; for `O=C(NCc1ccnc(-c2ccccc2)c1)[C@@H]1CCCN1S(=O)(=O)c1cc2ccccc2o1` [Example 112, (2S)-1-(benzofuran-2-ylsulfonyl)-N-[(2-phenyl-4-pyridyl)methyl]pyrrolidine-2-carboxamide]: 270 nM.
The same measure for `CC(C)(C)OC[C@H](NS(=O)(=O)c1cc2cc(F)ccc2o1)C(=O)NCc1cccc(-c2ccc(C(F)(F)F)nc2)c1` [Example 189, (2S)-3-tert-butoxy-2-[(5-fluorobenzofuran-2-yl)sulfonylamino]-N-[[3-[6-trifluoromethyl-3-pyridyl]phenyl]methyl]propanamide]: 840 nM.
The same measure for `N#Cc1ccc(-c2cc(CNC(=S)[C@@H]3CCCN3S(=O)(=O)c3cc4ccccc4o3)ccn2)cc1` [Example 293, (2S)-1-(benzofuran-2-ylsulfonyl)-N-[[2-(4-cyanophenyl)-4-pyridyl]methyl]pyrrolidine-2-carbothioamide]: 3.1 nM; for `C#CCN([C@@H](C)C(=O)NCc1ccnc(-c2ccc(C(F)(F)F)nc2)c1)S(=O)(=O)c1cc2cc(F)ccc2o1` [Example 314, (2S)-2-[(5-fluorobenzofuran-2-yl)sulfonyl-prop-2-ynyl-amino]-N-[[2-[6-(trifluoromethyl)-3-pyridyl]-4-pyridyl]methyl]propanamide]: 4.6 nM; for `O=C(NCc1cccc(-c2ccc(C(F)(F)F)cc2)n1)[C@@H]1CCCN1S(=O)(=O)c1cc2cc(F)ccc2o1` [Example 144, (2S)-1-(5-fluorobenzofuran-2-yl)sulfonyl-N-[[6-[4-(trifluoromethyl)phenyl]-2-pyridyl]methyl]pyrrolidine-2-carboxamide]: 47 nM.
Consider `O=C(NCc1ccc(F)c(-c2ccc(C(F)(F)F)cc2)c1)[C@@H]1CCCN1S(=O)(=O)c1cc2ccccc2o1` [Example 307, (2S)-1-(benzofuran-2-ylsulfonyl)-N-[[4-fluoro-3-[4-(trifluoromethyl)phenyl]phenyl]methyl]pyrrolidine-2-carboxamide], for which the IC50 came to 1.7 nM.
In the case of `N#Cc1ccc(-c2cncc(CNC(=O)[C@@H]3CCCN3S(=O)(=O)c3cc4cc(F)ccc4o3)c2)cc1` [Example 142, (2S)-N-[[5-(4-cyanophenyl)-3-pyridyl]methyl]-1-(5-fluorobenzofuran-2-yl)sulfonyl-pyrrolidine-2-carboxamide], the 50% inhibitory concentration (IC50) is 24 nM.
The same measure for `CNc1nc(CNC(=O)[C@@H]2CCCN2S(=O)(=O)c2cc3ccccc3o2)cc(-c2ccc(C(F)(F)F)cc2)n1` [Example 326, (2S)-1-(benzofuran-2-ylsulfonyl)-N-[[2-(methylamino)-6-[4-(trifluoromethyl)phenyl]pyrimidin-4-yl]methyl]pyrrolidine-2-carboxamide]: 29 nM; for `O=C(NCc1ccnc(-c2ccc(OC(F)(F)F)cc2)c1)[C@@H]1CCCN1S(=O)(=O)c1cc2ccccc2o1` [Example 116, (2S)-1-(benzofuran-2-ylsulfonyl)-N-[[2-[4-(trifluoromethoxy)phenyl]-4-pyridyl]methyl]pyrrolidine-2-carboxamide]: 2.9 nM; for `O=C(NCc1ccnc(-c2ccc(C(F)(F)F)cc2)c1)[C@@H]1CCCN1S(=O)(=O)c1cc2ccc(F)cc2o1` [Example 220, (2S)-1-(6-fluorobenzofuran-2-yl)sulfonyl-N-[[2-[4-(trifluoromethyl)phenyl]-4-pyridyl]methyl]pyrrolidine-2-carboxamide]: 54 nM.
In the case of `CN(C)c1cc(-c2cccc(CNC(=O)[C@@H]3CCCN3S(=O)(=O)c3cc4cc(F)ccc4o3)c2)ccn1` [Example 96, (2S)-N-[[3-[2-(dimethylamino)-4-pyridyl]phenyl]methyl]-1-(5-fluorobenzofuran-2-yl)sulfonyl-pyrrolidine-2-carboxamide] it was 250 nM; in that of `O=C(NCc1cccc(Oc2ccc(C(F)(F)F)cc2)c1)[C@@H]1CCCN1S(=O)(=O)c1cc2cc(F)ccc2o1` [Example 53, (2S)-1-(5-fluorobenzofuran-2-yl)sulfonyl-N-[[3-[4-(trifluoromethyl)phenoxy]phenyl]-methyl]pyrrolidine-2-carboxamide], 2.7 nM; in that of `O=C(NCc1cccc(OCc2ccnc(C(F)(F)F)c2)c1)[C@@H]1CCCN1S(=O)(=O)c1cc2cnccc2o1` [Example 274, (2S)-1-furo[3,2-c]pyridin-2-ylsulfonyl-N-[[3-[[2-(trifluoromethyl)-4-pyridyl]methoxy]phenyl]-methyl]pyrrolidine-2-carboxamide], 9.8 nM.
